Bounds are passed on as bounds.

Experimental findings from US9120812B2, “Pyrimidooxazocine derivatives as mTOR-inhibitors” (SANOFI, priority 2012, dated 2015) are described below.

The target of test [1] is mTOR (human recombinant aa mTOR 1360-2549) (Homo sapiens (Human), UniProt P42345). Nature of the test: mTOR enzymatic test by TR-FRET (phosphorylation of GFP-4EBP1). In kind it is biochemical. The method, boiled down:
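After a 30 min room-temperature kinase reaction, EDTA (10 mM final) and Tb-labelled phospho-Thr46 antibody (2 nM final) were added and incubated 60 min. Energy transfer from Tb to phosphorylated GFP-4EBP1 was read at 340 nm excitation, emissions 490/520 nm. Values derive from the 520/490 fluorescence ratio.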
On the technique in general: Time-resolved FRET reads energy transfer from a long-lived donor to a nearby acceptor.

Test [2] has as its target PI3Kα (p110α/p85α) (Homo sapiens (Human), UniProt P42336). Nature of the test: PI3Kα enzymatic test by measuring the consumption of ATP. In kind it is biochemical. The gist of the method: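 ATP consumption read out by KinaseGlo luminescence after a 90 min reaction of 1.7 μg/ml PI3Kα (p110α/p85α) with 2 μM ATP and 50 μM PIP2, buffered at pH 7.5 (Tris, 10 mM MgCl2, 1 mM EGTA, 0.03% Chaps, 1 mM DTT). Threefold dilution series over ≥10 000-fold range yield IC50.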

Test [3] relates to U87MG tumour cells. Nature of the test: Test of in vitro proliferation of U87MG tumour cells. The note with it: Homo sapiens, U-87 MG, 72 h, U87MG cells, 72 hours; read-out: U87 Cell Proliferation IC50. The class given is cell-based. As for the experimental part: Model 4: Test of in vitro Proliferation of U87MG Tumour Cells.
The cell growth is determined with the reagent CellTiter 96 AQueous One Solution Cell Proliferation Assay from Promega (Cat. No. G3581).

The test system of test [4] is Akt-pS473 in U87MG cells. Particulars: Homo sapiens, U-87 MG; for IC50: read-out: U87 Akt-pS473 % Inhibition or IC50, nM (IC50), U87MG cells.

PI3Kα (p110α/p85α), sequence (P42336 whole entry): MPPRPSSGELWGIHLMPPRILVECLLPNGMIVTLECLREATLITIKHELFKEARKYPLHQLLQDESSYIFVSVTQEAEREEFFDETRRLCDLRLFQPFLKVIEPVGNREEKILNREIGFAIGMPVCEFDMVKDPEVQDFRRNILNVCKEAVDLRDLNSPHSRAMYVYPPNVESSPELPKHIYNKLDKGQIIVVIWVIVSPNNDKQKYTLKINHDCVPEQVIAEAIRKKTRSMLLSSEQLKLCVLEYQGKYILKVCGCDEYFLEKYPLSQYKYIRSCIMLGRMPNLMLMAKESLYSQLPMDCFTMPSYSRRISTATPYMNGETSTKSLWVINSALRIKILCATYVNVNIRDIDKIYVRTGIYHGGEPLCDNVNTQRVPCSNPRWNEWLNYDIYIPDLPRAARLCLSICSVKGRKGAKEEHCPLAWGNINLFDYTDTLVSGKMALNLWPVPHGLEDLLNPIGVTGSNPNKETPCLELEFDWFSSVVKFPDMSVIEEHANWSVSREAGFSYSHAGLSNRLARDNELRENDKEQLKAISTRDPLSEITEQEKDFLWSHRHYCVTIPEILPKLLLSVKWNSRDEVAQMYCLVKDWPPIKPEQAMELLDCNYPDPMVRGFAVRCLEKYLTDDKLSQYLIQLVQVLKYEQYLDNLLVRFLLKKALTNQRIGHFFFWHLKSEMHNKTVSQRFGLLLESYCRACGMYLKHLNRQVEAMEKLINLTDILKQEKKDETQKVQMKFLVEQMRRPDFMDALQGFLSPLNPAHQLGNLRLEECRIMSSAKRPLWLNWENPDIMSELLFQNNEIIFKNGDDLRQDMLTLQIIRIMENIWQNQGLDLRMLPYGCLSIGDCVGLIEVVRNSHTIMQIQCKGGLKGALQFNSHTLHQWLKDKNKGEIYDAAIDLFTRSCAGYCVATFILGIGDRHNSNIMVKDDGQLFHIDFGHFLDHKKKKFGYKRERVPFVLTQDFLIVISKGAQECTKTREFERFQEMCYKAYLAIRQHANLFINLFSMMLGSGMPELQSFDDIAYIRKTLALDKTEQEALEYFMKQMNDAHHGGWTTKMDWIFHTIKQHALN
PI3Kα (p110α/p85α), sequence (P27986 whole entry partner): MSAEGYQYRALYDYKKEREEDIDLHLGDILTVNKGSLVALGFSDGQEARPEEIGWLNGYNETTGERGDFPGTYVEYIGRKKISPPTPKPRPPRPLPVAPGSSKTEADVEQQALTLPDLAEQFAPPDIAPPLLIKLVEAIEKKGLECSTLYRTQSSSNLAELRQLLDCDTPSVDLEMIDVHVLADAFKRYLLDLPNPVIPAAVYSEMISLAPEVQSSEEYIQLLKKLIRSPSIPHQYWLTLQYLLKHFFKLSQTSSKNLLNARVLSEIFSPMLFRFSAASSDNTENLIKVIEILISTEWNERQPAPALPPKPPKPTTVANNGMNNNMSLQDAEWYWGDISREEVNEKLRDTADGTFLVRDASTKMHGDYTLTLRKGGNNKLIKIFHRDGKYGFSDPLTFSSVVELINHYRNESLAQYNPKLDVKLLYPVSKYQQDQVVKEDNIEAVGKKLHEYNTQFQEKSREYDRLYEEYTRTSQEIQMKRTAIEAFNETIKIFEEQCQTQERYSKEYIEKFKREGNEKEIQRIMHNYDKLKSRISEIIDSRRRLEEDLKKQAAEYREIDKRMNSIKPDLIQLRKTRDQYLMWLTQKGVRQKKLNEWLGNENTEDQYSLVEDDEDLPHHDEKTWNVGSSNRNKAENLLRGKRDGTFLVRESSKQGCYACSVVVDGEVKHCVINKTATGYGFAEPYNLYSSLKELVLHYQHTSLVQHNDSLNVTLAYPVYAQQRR
mTOR (human recombinant aa mTOR 1360-2549), sequence (P42345 1360-2549): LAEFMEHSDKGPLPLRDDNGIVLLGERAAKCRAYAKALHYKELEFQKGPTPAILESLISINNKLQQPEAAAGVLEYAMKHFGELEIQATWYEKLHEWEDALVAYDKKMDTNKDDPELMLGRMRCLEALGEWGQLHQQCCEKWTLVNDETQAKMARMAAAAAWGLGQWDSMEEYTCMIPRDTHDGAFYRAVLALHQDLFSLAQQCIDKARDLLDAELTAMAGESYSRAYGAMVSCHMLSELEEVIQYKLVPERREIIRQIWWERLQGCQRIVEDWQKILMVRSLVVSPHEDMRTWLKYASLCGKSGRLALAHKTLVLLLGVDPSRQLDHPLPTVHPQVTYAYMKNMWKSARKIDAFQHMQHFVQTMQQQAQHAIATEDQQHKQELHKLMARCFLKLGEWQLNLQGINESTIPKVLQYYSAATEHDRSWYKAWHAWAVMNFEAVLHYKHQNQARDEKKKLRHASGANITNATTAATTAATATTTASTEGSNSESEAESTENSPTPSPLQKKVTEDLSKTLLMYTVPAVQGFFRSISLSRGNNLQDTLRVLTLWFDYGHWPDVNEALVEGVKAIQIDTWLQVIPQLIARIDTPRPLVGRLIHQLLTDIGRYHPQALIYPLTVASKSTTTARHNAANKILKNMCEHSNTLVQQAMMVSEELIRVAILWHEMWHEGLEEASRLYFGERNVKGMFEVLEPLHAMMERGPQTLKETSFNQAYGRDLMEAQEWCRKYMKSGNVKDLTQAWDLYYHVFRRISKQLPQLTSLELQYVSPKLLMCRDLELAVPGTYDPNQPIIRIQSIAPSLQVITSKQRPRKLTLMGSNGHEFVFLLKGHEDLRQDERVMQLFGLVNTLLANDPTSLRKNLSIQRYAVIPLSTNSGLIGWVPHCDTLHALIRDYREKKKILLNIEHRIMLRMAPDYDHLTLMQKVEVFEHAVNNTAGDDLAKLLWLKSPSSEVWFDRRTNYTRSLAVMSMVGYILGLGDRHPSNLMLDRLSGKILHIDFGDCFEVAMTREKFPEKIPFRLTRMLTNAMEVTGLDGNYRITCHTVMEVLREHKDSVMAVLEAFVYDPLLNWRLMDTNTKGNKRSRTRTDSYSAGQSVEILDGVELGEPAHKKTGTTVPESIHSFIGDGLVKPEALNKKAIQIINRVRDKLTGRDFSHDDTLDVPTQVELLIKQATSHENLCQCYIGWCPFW

On to `CC[C@H]1COCCN1c1ccc(NC(=O)Nc2ccc(-c3nc(N4CCOC[C@@H]4C)nc4c3C(=O)N(CC)CC(C)(C)O4)cc2F)cn1` [Example 248, 1-{4-[6-Ethyl-8,8-dimethyl-2-((S)-3-methylmorpholin-4-yl)-5-oxo-5,6,7,8-tetrahydro-9-oxa-1,3,6-triazabenzocyclohepten-4-yl]-2-fluorophenyl}-3-[6-((S)-3-ethylmorpholin-4-yl)pyridin-3-yl]urea], for which the IC50 in test [1] is 0.068 µM; in test [3] it was 0.096 µM; in test [4], 29 nM. In addition, the “PI3Ka IC50” value in test [2] was over 10 µM.
The corresponding values for `CCN1CC(C)(C)Oc2nc(N3CC4CCC(C3)O4)nc(-c3ccc(NC(=O)Nc4ccc(N(C)C)cn4)cc3)c2C1=O` [Example 64, 1-(5-Dimethylaminopyridin-2-yl)-3-{4-[6-ethyl-8,8-dimethyl-2-(8-oxa-3-azabicyclo[3.2.1]oct-3-yl)-5-oxo-5,6,7,8-tetrahydro-9-oxa-1,3,6-triazabenzocyclohepten-4-yl]phenyl}urea] are 0.024 µM, 0.27 µM, 37 nM and over 10 µM.
Regarding `CCN1CC(C)(C)Oc2nc(N3CCOC[C@@H]3C)nc(-c3ccc(NC(=O)Nc4ccc(N5CCN(C)CC5)cn4)cc3)c2C1=O` [Example 218, 1-{4-[6-Ethyl-8,8-dimethyl-2-((S)-3-methylmorpholin-4-yl)-5-oxo-5,6,7,8-tetrahydro-9-oxa-1,3,6-triazabenzocyclohepten-4-yl]phenyl}-3-[5-(4-methylpiperazin-1-yl)pyridin-2-yl]urea], the IC50 was found to be 0.058 µM in test [1], 0.211 µM in test [3] and 17 nM in test [4]. The “PI3Ka IC50” value in test [2] was 1.06 µM.
In the same order, the values of `CCN1CC(C)(C)Oc2nc(N3CC4CCC(C3)O4)nc(-c3ccc(NC(=O)Nc4ccc(OC)cn4)cc3)c2C1=O` [Example 44, 1-{4-[6-Ethyl-8,8-dimethyl-2-(8-oxa-3-azabicyclo[3.2.1]oct-3-yl)-5-oxo-5,6,7,8-tetrahydro-9-oxa-1,3,6-triazabenzocyclohepten-4-yl]phenyl}-3-(5-methoxypyridin-2-yl)urea] are 0.034 µM, 0.22 µM, 40 nM and over 10 µM.
In the case of `CCNC(=O)Nc1ccc(-c2nc(N3CC4CCC(C3)O4)nc3c2C(=O)N(C2CCOCC2)CC(C)(C)O3)cc1` [Example 14, 1-{4-[8,8-dimethyl-2-(8-oxa-3-azabicyclo[3.2.1]oct-3-yl)-5-oxo-6-(tetrahydropyran-4-yl)-5,6,7,8-tetrahydro-9-oxa-1,3,6-triazabenzocyclohepten-4-yl]phenyl}-3-ethylurea], the figures for the IC50 in test [1], in test [3] and in test [4] were 0.041 µM, 1.42 µM and 458 nM, respectively. The “PI3Ka IC50” value in test [2] is over 10 µM.
For `CCN1CC(C)(C)Oc2nc(N3CCOC[C@@H]3C)nc(-c3ccc(NC(=O)O[C@H]4CCC[C@H]4O)cc3)c2C1=O` [Example 53, {4-[6-Ethyl-8,8-dimethyl-2-((S)-3-methylmorpholin-4-yl)-5-oxo-5,6,7,8-tetrahydro-9-oxa-1,3,6-triazabenzocyclohepten-4-yl]phenyl}carbamic acid (1S,2R)-2-hydroxycyclopentyl ester], the results for the IC50 in test [1], in test [3] and in test [4] were 0.222 µM, 2.16 µM and 555 nM, respectively. Further, the “PI3Ka IC50” value in test [2] was over 10 µM.
For the compound `CCN1CC(C)(C)Oc2nc(N3C4CCC3COC4)nc(-c3ccc(NC(=O)OCCO)cc3F)c2C1=O` [Example 243, {4-[6-Ethyl-8,8-dimethyl-2-(3-oxa-8-azabicyclo[3.2.1]oct-8-yl)-5-oxo-5,6,7,8-tetrahydro-9-oxa-1,3,6-triazabenzocyclohepten-4-yl]-3-fluorophenyl}carbamic acid 2-hydroxyethyl ester], the IC50 was determined as 0.063 µM in test [1], 0.61 µM in test [3] and 160 nM in test [4]. Moreover, the “PI3Ka IC50” value in test [2] stood at 3.87 µM.
Take `CCN1CC(C)(C)Oc2nc(N3CC4CCC(C3)O4)nc(-c3ccc(NC(=O)NCC4CCOCC4)c(F)c3)c2C1=O` [Example 134, 1-{4-[6-Ethyl-8,8-dimethyl-2-(8-oxa-3-azabicyclo[3.2.1]oct-3-yl)-5-oxo-5,6,7,8-tetrahydro-9-oxa-1,3,6-triazabenzocyclohepten-4-yl]-2-fluorophenyl}-3-(tetrahydropyran-4-ylmethyl)urea]: the values for the IC50 in test [1], in test [3] and in test [4] were 3.17 µM, over 10 µM and over 3000 nM, respectively. The “PI3Ka IC50” value in test [2] was over 10 µM.
The corresponding values for `CCN1CC(C)(C)Oc2nc(N3CCOC[C@@H]3C)nc(-c3ccc(NC(=O)Nc4ccc(C)cn4)c(F)c3)c2C1=O` [Example 164, 1-{4-[6-Ethyl-8,8-dimethyl-2-((S)-3-methylmorpholin-4-yl)-5-oxo-5,6,7,8-tetrahydro-9-oxa-1,3,6-triazabenzocyclohepten-4-yl]-2-fluorophenyl}-3-(5-methylpyridin-2-yl)urea] are 0.085 µM, 0.872 µM, 227 nM and 3.8 µM.
In the case of `CCN1CC(C)(C)Oc2nc(N3CCOC[C@@H]3C)nc(-c3ccc(NC(=O)NC)cc3F)c2C1=O` [Example 11, 1-{4-[6-ethyl-8,8-dimethyl-2-((S)-3-methylmorpholin-4-yl)-5-oxo-5,6,7,8-tetrahydro-9-oxa-1,3,6-triazabenzocyclohepten-4-yl]-3-fluorophenyl}-3-methylurea], the IC50 in test [1] is 0.013 µM; in test [3], 0.271 µM; in test [4] it was 61 nM. Also, in test [2], the “PI3Ka IC50” value worked out at 2.3 µM.
On to `CN1CC(C)(C)Oc2nc(N3CC4CCC(C3)O4)nc(-c3ccc(NC(=O)Nc4ccncc4)c(F)c3)c2C1=O` [Example 83, 1-{2-Fluoro-4-[6,8,8-trimethyl-2-(8-oxa-3-azabicyclo[3.2.1]oct-3-yl)-5-oxo-5,6,7,8-tetrahydro-9-oxa-1,3,6-triazabenzocyclohepten-4-yl]phenyl}-3-pyridin-4-ylurea], for which the IC50 came to 0.02 µM in test [1], 0.041 µM in test [3] and 16 nM in test [4]. The “PI3Ka IC50” value in test [2] amounted to 1.46 µM.
The corresponding values for `CC[C@H]1COCCN1c1nc2c(c(-c3ccc(NC(=O)Nc4ccc(C)nc4)c(F)c3)n1)C(=O)N(CC)CC(C)(C)O2` [Example 37, 1-{4-[6-Ethyl-2-((S)-3-ethylmorpholin-4-yl)-8,8-dimethyl-5-oxo-5,6,7,8-tetrahydro-9-oxa-1,3,6-triazabenzocyclohepten-4-yl]-2-fluorophenyl}-3-(6-methylpyridin-3-yl)urea] are 0.122 µM, 0.869 µM, 54 nM and 8.63 µM.
What is called inhibition is the drop in the measured response relative to a control, in per cent. For `CCN1CC(C)(C)Oc2nc(N3CCOC[C@@H]3C)nc(-c3ccc(NC(=O)Nc4ccccn4)c(F)c3)c2C1=O` [Example 192, 1-{4-[6-Ethyl-8,8-dimethyl-2-((S)-3-methylmorpholin-4-yl)-5-oxo-5,6,7,8-tetrahydro-9-oxa-1,3,6-triazabenzocyclohepten-4-yl]-2-fluorophenyl}-3-pyridin-2-ylurea], the values for the IC50 in test [1] and in test [3] were 0.029 µM and 1.77 µM, respectively. Also, the “PI3Ka IC50” value in test [2] came out at 1.31 µM. The inhibition at 3 µM in test [4] (read-out: U87 Akt-pS473 % Inhibition) came out at 82%.
On to `CCNC(=O)Nc1ccc(-c2nc(N3CC4CCC(C3)O4)nc3c2C(=O)N(CCC(=O)OC(C)(C)C)CC(C)(C)O3)cc1` [Example 120, 3-[4-[4-(3-Ethylureido)phenyl]-8,8-dimethyl-2-(8-oxa-3-azabicyclo[3.2.1]oct-3-yl)-5-oxo-7,8-dihydro-5H-9-oxa-1,3,6-triazabenzocyclohepten-6-yl]propionic acid tert-butyl ester], for which the results for the IC50 in test [1], in test [3] and in test [4] were 0.351 µM, 2.26 µM and 1180 nM, respectively. Moreover, in test [2], the “PI3Ka IC50” value was over 10 µM.
The corresponding values for `CCN1CC(C)(C)Oc2nc(N3C4CCC3COC4)nc(-c3ccc(NC(=O)Nc4cc(OC)ccn4)cc3)c2C1=O` [Example 79, 1-{4-[6-Ethyl-8,8-dimethyl-2-(3-oxa-8-azabicyclo[3.2.1]oct-8-yl)-5-oxo-5,6,7,8-tetrahydro-9-oxa-1,3,6-triazabenzocyclohepten-4-yl]phenyl}-3-(4-methoxypyridin-2-yl)urea] are 0.053 µM, 0.383 µM, 41 nM and over 10 µM.
In the case of `CCN1CC(C)(C)Oc2nc(N3CC4CCC(C3)O4)nc(-c3ccc(NC(=O)Nc4ccc(F)c(OC)c4)c(F)c3)c2C1=O` [Example 138, 1-{4-[6-Ethyl-8,8-dimethyl-2-(8-oxa-3-azabicyclo[3.2.1]oct-3-yl)-5-oxo-5,6,7,8-tetrahydro-9-oxa-1,3,6-triazabenzocyclohepten-4-yl]-2-fluorophenyl}-3-(4-fluoro-3-methoxyphenyl)urea], the IC50 turned out to be 0.299 µM in test [1], 0.331 µM in test [3] and 105 nM in test [4]. In addition, the “PI3Ka IC50” value in test [2] is over 10 µM.
